Laboratory results taken from paper PMC6429459, “The HslV Protease from Leishmania major and Its Activation by C-terminal HslU Peptides” (International Journal of Molecular Sciences, 2019).
Entries after “also recorded” stand apart in the source; their conditions may differ. Numbered stars: 1 amine (or outer) side, 2 acyl side, 3 side chain; on linkers, the order of the positions; unused ones are H or OH. * marks the point of attachment. AMC = Cc1cc(=O)oc2cc(N*)ccc12; Suc = O=C(CCC(=O)[*:2])[*:1]

Assays:
recombinant LmHslV = assay: LmHslV peptidase activation by HslU C-terminal peptides, substrate Z-EVNL-AMC (JMV4482); format: biochemical, Leishmania major; conditions: for Potency of LmHslV activation relative to LmC12-U2 / LmHslV activation relative to reference peptide 10 (LmC12-U2): LmHslV 75.2 nM, 37 °C, Z-EVNL-AMC 100 μM, Figure 3; for LmHslV activation relative to reference peptide 10 (LmC12-U2): initial velocity normalised to 10 = 100%
Description: (§1) Activity assay: The peptidase activity of recombinant LmHslV was assessed by measuring the fluorescence of AMC released after hydrolysis of the fluorogenic substrates Z-GGL-AMC or JMV4482 (Z-EVNL-AMC), 100 µM. LmHslV activation was obtained by addition of activating peptides (see type and concentration in the figure legends). Activity buffer: 25 mM Tris-HCl pH 8.0, 1 mM DTT, 0.5 mM EDTA and 5 mM MgCl2. Most of the experiments were performed in a final volume of 50 µL in black 96-well microplates (Fisher Scientific, Illkirch, France. Fluorescence was measured using a spectrofluorimeter (BIO-TEK Instrument, Inc., Winooski, VT, USA): filters 360/340 for excitation and 460/440 for emission.
Figure 3 Both peptides derived from the C-terminal end of either LmHslU1 or LmHslU2 and analogues from other microorganisms are able to support LmHslV activation. LmHslV (75,2nM) was incubated at 37 °C with the peptide substrate Z-EVNL-AMC (100 μM) in the presence of peptides 8–11 and 1–15 (500 μM). A scrambled version of LmC12-U2 (44) was also included. The fluorescence of the free AMC group, proportional to the activity of the sample, was measured at 2 min. intervals.
Figure 4 Sequence requirements for activation of LmHslV by C-terminal LmHslU2 peptides. (A) Alascan. Percentage of initial velocity relative to compound LmC12-U2. Fluorescence was measured for 30 min incubation at 37 °C of LmHslV (2 μg) with 100 μM JMV4482 (Z-EVNL-AMC) in the presence of 500 μM peptides. (B) D-scan. Percentage of initial velocity relative to compound LmC12-U2. Activity was measured as in (A). (C) Truncated peptides. Percentage of activity relative to compound LmC12-U2, measured as in (A).
Figure 5 Effect of conformational constraints on HslV activation by HslU C-terminal peptides. HslV activity was measured in the presence of various cyclic analogues of LmC12-U2 and LmC9-U2. Values are expressed as percentage of initial velocity relative to compound LmC12-U2.
Figure S3. Effect of LmC12-U2 dimerization. LmHslV has been incubated at 37°C for 30 min with […]
the substrate Z-EVNL-AMC (100µM). The fluorescence generated by the cleavage of the substrate was recorded at 5 min intervals. The dotted line represents the ratio at each time point between the fluorescence values obtained with the two peptides.
(also on this page, place not known: dimerization . ( 12), Di-C12 / C12 Fluorescence (arbitrary unit) Ratio)

[1] = Circular dichroism, α-helix content from θ at 222 nm; format: physicochemical; conditions: for Helicity%: 25 mM Tris-HCl pH 8.0, 20 °C, 100% helicity for θ = −36,000; for θmre at 222 nm: 25 mM Tris-HCl pH 8.0, around 200 μM peptide, 20 °C, 1 mm cuvette, 3 scans
Description: CD spectra (Figure S2) were recorded on a JASCO J-815 spectropolarimeter from 190 to 260 nm (data pitch of 0.1 nm, continuous scanning mode, 200 nm/min, 3 scans) at 20 °C, using a 1 mm path length cuvette. Baseline was corrected by subtracting the background from the sample spectrum.
Peptides were solubilised in 50 mM Tris-HCl, pH 8.0 buffer at an estimated concentration of 400 μM according to their apparent molecular mass (i.e. M + xTFA with x = number of basic groups). The solutions were then diluted twice (25 mM Tris and around 200 μM peptides final concentrations) with: […]

LmHslV = assay: Degradation of fluorogenic substrates by LmC12-U2-activated LmHslV; format: biochemical, Leishmania major; conditions: LmHslV 75.2 nM, 37 °C, substrate 100 μM, activating peptide LmC12-U2 500 μM; Figure 2; in words
Description: as §1
Figure 2 Degradation of different fluorogenic substrates by LmHslV. LmHslV (75.2 nM) was incubated at 37 °C with different fluorogenic substrates (100 μM) in the presence of the activating peptide LmC12-U2 (500 μM). The fluorescence of the free AMC group, proportional to the activity of the sample, was measured at 2 min. intervals. With each substrate, no activity was measured in the absence of activating peptide: for the sake of clarity, only the negative control values obtained with the substrate ZGGL-AMC are shown.

[2] = substrate Z-EVNL-AMC, Figure 5, in words

H-arg-O2Oc-Leu-Gln-Lys-Asn-Val-Asn-leu-Ala-Lys-Tyr-Leu-Leu-OH [Compound 23]
LmHslV activation, Ala-scan, D-scan and truncations, relative to LmC12-U2 (recombinant LmHslV; LmHslV 2 μg, 30 min at 37 °C, JMV4482 (Z-EVNL-AMC) 100 μM, peptide 500 μM, Figure 4, in words): no activity

H-arg-O2Oc-Leu-Gln-Lys-c[Asp-Val-Asn-Leu-Dap]-Lys-Tyr-Leu-Leu-OH (sidechain bridge or staple) [Compound 42]
LmHslV activation by cyclic analogues relative to reference peptide 10 (recombinant LmHslV; [2]): almost half as active as the reference peptide

H-arg-O2Oc-Leu-Gln-Lys-c[Asp-Val-Asn-Leu-Lys]-Lys-Tyr-Leu-Leu-OH (sidechain bridge or staple) [Compound 37]
Helicity% ([1]; 0% TFE): 5% | θmre at 222 nm ([1]; 0% TFE): −1626 deg.cm^2.dmol^−1 | Helicity% ([1]; 25% TFE): 17% | θmre at 222 nm ([1]; 25% TFE): −6143 deg.cm^2.dmol^−1 | θmre at 222 nm ([1]; 50% TFE): −7628 deg.cm^2.dmol^−1 | LmHslV activation by cyclic analogues relative to reference peptide 10 (recombinant LmHslV; [2]): the more potent cyclic analogue

H-arg-O2Oc-Leu-Gln-Lys-c[Asp-Val-Asn-Leu-Orn]-Lys-Tyr-Leu-Leu-OH (sidechain bridge or staple) [Compound 41]
LmHslV activation by cyclic analogues relative to reference peptide 10 (recombinant LmHslV; [2]): activity decreased

H-arg-O2Oc-Leu-Gln-Lys-c[Asp-Val-Asn-Leu-lys]-Lys-Tyr-Leu-Leu-OH (sidechain bridge or staple) [Compound 39]
LmHslV activation by cyclic analogues relative to reference peptide 10 (recombinant LmHslV; [2]): much more potent than the linear compound 24

H-arg-O2Oc-Leu-Gln-Lys-c[asp-Val-Asn-Leu-lys]-Lys-Tyr-Leu-Leu-OH (sidechain bridge or staple) [Compound 40]
Relative potency: percentage of initial velocity relative to LmC12-U2 (recombinant LmHslV; cyclic analogues, substrate Z-EVNL-AMC, Figure 5): 55%

H-arg-O2Oc-Leu-Met-Asn-Asn-Ile-Asp-Leu-Ala-Lys-Tyr-Ile-Leu-OH [Compound 13]
Potency of LmHslV activation relative to LmC12-U2 (recombinant LmHslV; peptide 500 μM): twice

H-arg-O2Oc-Leu-Val-Ala-Asp-Glu-Asp-Leu-Ser-Arg-Phe-Ile-Leu-OH [Compound 15]
LmHslV activation relative to reference peptide 10 (LmC12-U2) (recombinant LmHslV; peptide 500 μM, in words): as potent as LmC12-U2

H-arg-O2Oc-Met-Val-Lys-Lys-Val-Asp-Ile-Lys-Lys-Tyr-Ile-Leu-OH [Compound 9]
LmHslV activation relative to reference peptide 10 (LmC12-U2) (recombinant LmHslV; peptide 500 μM, in words): increase in activity; also recorded: large increase in potency

H-arg-O2Oc-Phe-Ile-Lys-Gln-Tyr-Asp-Leu-Lys-Lys-Tyr-Ile-Ile-OH [Compound 14]
Potency of LmHslV activation relative to LmC12-U2 (recombinant LmHslV; peptide 500 μM): 1.5 fold

H-arg-O2Oc-c[Asp-Val-Asn-Leu-Lys]-Lys-Tyr-Leu-Leu-OH (sidechain bridge or staple) [Compound 43]
Helicity% ([1]; 0% TFE): 6% | θmre at 222 nm ([1]; 0% TFE): −2225 deg.cm^2.dmol^−1 | Helicity% ([1]; 25% TFE): 14% | θmre at 222 nm ([1]; 25% TFE): −5026 deg.cm^2.dmol^−1 | Helicity% ([1]; 50% TFE): 14% | θmre at 222 nm ([1]; 50% TFE): −5140 deg.cm^2.dmol^−1 | LmHslV activation by cyclic analogues relative to reference peptide 10 (recombinant LmHslV; [2]): almost as active as the reference peptide 10; also recorded: did not reduce the activity compared to LmC12-U2 (10)

Suc-LLVY-{AMC}
Degradation of fluorogenic substrate by activated LmHslV (LmHslV): degraded by peptide-activated LmHslV
